The text below walks through data of EP3628659A1, “SELENOESTER-CONTAINING COMPOUNDS FOR USE IN THE TREATMENT OF MICROBIAL INFECTIONS OR COLORECTAL CANCER” (Consejo Superior De Investigaciones Científicas, priority 2018, dated 2020).

Test [1] deals with Colo 205 doxorubicin-sensitive. The experiment in a line: Cytotoxicity assay (MTT) in Colo 205 cells. Conditions: for IC50: Homo sapiens, COLO 205, 24 h, read-out: Colo 205 Cytotoxicity; for SI (MRC-5/Colo205): quotient of IC50 in MRC-5 and IC50 in Colo-205. It is filed as cell-based, human. Here is the method: Cytotoxicity assays in human colonic adenocarcinoma cell lines Colo 205 doxorubicin-sensitive (ATCC-CCL-222) and Colo 320/MDR-LRP multidrug resistant overexpressing ABCB1 (MDR1)-LRP (ATCC-CCL-220.1) were performed following the procedure described by Gajdács et al, 2017, Bioorg Med Chem Lett. 27(4): 797-802. The effects of increasing concentrations of selenium compounds on cell growth were tested in 96-well flat-bottomed microtiter plates. The selectivity of the action towards cancer cells was assessed through the evaluation of cytotoxic activity in a non-tumoral cell line, the MRC-5 human embryonal lung fibroblast cell lines (ATCC CCL-171), as described in Gajdács et al, 2017, Bioorg Med Chem Lett. 27(4): 797-802.
All cell lines were purchased from LGC Promochem, Teddington, UK. The colonic cells were cultured in RPMI 1640 medium supplemented with 10% heat-inactivated fetal bovine serum, 2 mM L-glutamine, 1 mM Na-pyruvate and 100 mM Hepes. The cell lines were incubated at 37°C, in a 5% CO2, 95% air atmosphere. The semi-adherent human colon cancer cells were detached with Trypsin-Versene (EDTA) solution for 5 min at 37°C. Alternatively, MRC-5 cells was cultured in Eagle's Minimal Essential Medium (EMEM, containing 4.5 g/L glucose) supplemented with a non-essential amino acid mixture, a selection of vitamins and 10% heat-inactivated fetal bovine serum. The cell lines were incubated at 37°C, in a 5% CO2, 95% air atmosphere.
The compounds were diluted in a volume of 100 µL of medium. The two-fold serial dilutions of selenocompounds were prepared in 100 µL of RPMI 1640, horizontally. The semi-adherent colonic adenocarcinoma cells were treated with Trypsin-Versene (EDTA) solution. They were adjusted to a density of 2×10^4 cells in 100 µL of RPMI 1640 medium, and were added to each well, with the exception of the medium control wells. The final volume of the wells containing selenocompounds and cells was 200 µL.
The culture plates were incubated at 37°C for 24 h; at the end of the incubation period, 20 µL of MTT (thiazolyl blue tetrazolium bromide, Sigma) solution (from a stock solution of 5 mg/mL) were added to each well. After incubation at 37°C for 4 h, 100 µL of sodium dodecyl sulfate (SDS) (Sigma) solution (10% in 0.01 M HCI) were added to each well and the plates were further incubated at 37°C overnight. Cell growth was determined by measuring the optical density (OD) at 540/630 nm with Multiscan EX ELISA reader (Thermo Labsystems, Cheshire, WA, USA). Inhibition of the cell growth was determined according to the formula below: […] = 100−[(OD sample−OD medium control)/(OD cell control−OD medium control)] × 100 [formula]
Results are expressed in terms of IC50, defined as the inhibitory dose that reduces the growth of the cells exposed to the tested compounds by 50%. Regarding the selectivity, the selectivity indexes (SI) were calculate, being SI the quotient of the IC50 in non-tumoral cells (MRC-5) and the respective cancer cell (Colo-205 or Colo-320). Compound is considered moderately selective when SI < 6 and ≥ 3; and strongly selective when SI ≥ 6.

The next test relates to Steinernema feltiae. In words: Nematicidal activity (viability count), Steinernema feltiae. It is filed as in vivo. The conditions noted are these: IC50 class, tested at 50, 100, 150 and 200 µM, viability at 24 h. The protocol:
(§1) The compounds were tested for their antifungal and nematicidal properties against the fungi Candida albicans and Saccharomyces cerevisiae, and against the nematode Steinernema feltiae.
The soil nematodes S. feltiae were purchased from Sautter and Stepper GmbH (Ammerbuch, Germany) and stored at 4 °C in the dark. Before each experiment, fresh samples of nematodes were purchased and stored in the fridge upon arrival and used for a maximum of six days. To perform the assay, 200 mg of nematodes was reconstituted in 50 mL of phosphate buffered saline (PBS) (pH = 7.4) to form a homogenous suspension to revive the nematodes. Afterwards, the individual suspensions were allowed to rest at room temperature. The sedimentation was avoided with occasional shaking in moderate light and at room temperature (25 °C) for 30 min. Viability of the nematodes was determined by counting the live and dead nematodes under a light microscope (TR 200, VWR International, Leuven, Belgium) at four-fold magnification. An initial viability value of more than 90 percent was considered necessary to perform the experiments.
Sample solutions were added into the wells of a 96-well plate to achieve at final concentrations of 50,100, 150, and 200 µM. Afterwards, 10 µL of nematode suspension was added to each well and the final volume in each well was adjusted to 100 µL with phosphate buffered saline (PBS) (pH = 7.4). PBS was used in the negative control and ethanol in the positive control. Viability was determined at 0 h and 24 h by counting the live and dead nematodes, whereby 50 µL of lukewarm water (40 °C) were added to each well to stimulate the nematodes for the 24 h reading. Each experiment was performed independently in triplicate and on three different occasions (n = 9).
(§2) For the three organisms considered (C. albicans, S. cerevisiae and S. feltiae), the inhibitory concentration 50% (IC50) is defined as the concentration that inhibits the viability of the respective organism to a 50% of the viability determined for the negative control.

The test system of another test is Candida albicans. The experiment in a line: Antifungal activity (optical density), Candida albicans. It is filed as cell-based. The conditions noted are these: IC50 class, tested at 50, 100, 150 and 200 µM, OD 570 nm, 37 °C. The protocol:
as §1
Fungal cell densities were determined by measuring the optical density (OD) at 570 nm at 0 h (first measurement immediately after incubation), 4 h, and 24 h after incubation at 37 °C; and using a Universal Microplate Reader, EL800, Biotech Instruments, Inc. Highland Park, Winooski, VT, USA. Compounds were dissolved in 1% DMSO and were tested at final concentrations of 50, 100, 150, and 200 µM. Nutrient Sabouraud Dextrose (SD), and Yeast Peptone Dextrose (YPD) were used as media for C. albicans, and S. cerevisiae, respectively. Ketoconazole was used as the positive control for C. albicans and S. cerevisiae. The growth culture with medium for each organism was used as the negative control. The Solvent 1% DMSO stock was used as a solvent control. All experiments were carried out in triplicate and on three different occasions (n = 9).
as §2

In a further test the test system is Escherichia coli AG100. In words: MIC determination (CLSI), E. coli AG100. Format: cell-based. Conditions: MIC class. Here is the method: The effects exerted by different concentrations of the compounds on bacterial growth in Staphylococcus aureus 25923 ATCC, Staphylococcus aureus multidrug resistant 272123 clinical isolate (MRSA), Escherichia coli AG100 or Escherichia coli AG100 A were tested in 96-well plates. The MIC of selenocompounds was determined according to Clinical and Laboratory Standard Institute (CLSI) guidelines. The solvent used (DMSO) had no antibacterial effect. Alternatively, the MICs of oxacillin of the compounds in MRSA HEMSA 5 were determined by a broth microdilution method in cation-adjusted Mueller-Hinton Broth (MHB II) according to the recommendations of the CLSI. Results were recorded after a 20- or 24-hour incubation at 37°C.

`N#CC[Se]C(=O)c1ccc(C(=O)[Se]CC#N)cc1` [Compound 18, Se,Se-bis-(cyanomethyl) benzene-1,4-bis-(carboselenoate)]: the values for the IC50 (in test [1]; with Steinernema feltiae; in the test on Candida albicans) were 1 to 10 µM, 10 to 50 µM and 50 to 100 µM, respectively. The “SI (MRC-5/Colo205)” value in test [1] is “*** (Strongly selective compounds: SI ≥ 6)”. Also, the “Antibacterial activity Against E. coli AG100” value in the test with Escherichia coli AG100 is “** (Moderate antibacterial compounds: 10 µM < MIC ≤ 50 µM)”.

For `N#CC[Se]C(=O)c1cccc(C(=O)[Se]CC#N)c1` [Compound 19, Se,Se-bis-(cyanomethyl)benzene-1,3-bis-(carboselenoate)], the IC50 in test [1] was 1 to 10 µM; with Steinernema feltiae it was 10 to 50 µM; in the test on Candida albicans, 10 to 50 µM. For the same compound, the “SI (MRC-5/Colo205)” value in test [1] was “*** (Strongly selective compounds: SI ≥ 6)”. Also, the “Antibacterial activity Against E. coli AG100” value with Escherichia coli AG100 is “NA (Not antibacterial compounds: MIC ≥ 100 µM)”.

`N#CC[Se]C(=O)c1cc(C(=O)[Se]CC#N)cc(C(=O)[Se]CC#N)c1` [Compound 20, Se,Se,Se-tris-(cyanomethyl) benzene-1,3,5-tris-(carboxyselenoate)]: the IC50 in test [1] was less than 1 µM; with Steinernema feltiae it was greater than 100 µM; with Candida albicans, 10 to 50 µM. In addition, the “SI (MRC-5/Colo205)” value in test [1] was “*** (Strongly selective compounds: SI ≥ 6)”. In addition, the “Antibacterial activity Against E. coli AG100” value in the test with Escherichia coli AG100 is recorded as “NA (Not antibacterial compounds: MIC ≥ 100 µM)”.

On to `CC(=O)C[Se]C(=O)c1ccc(C(=O)[Se]CC(C)=O)cc1` [Compound 22, Se,Se-bis-(2-oxopropyl) benzene-1,4-bis-(carboselenoate)], for which the values for the IC50 (in test [1]; in the test on Steinernema feltiae; with Candida albicans) were less than 1 µM, 50 to 100 µM and 10 to 50 µM, respectively. Further, the “SI (MRC-5/Colo205)” value in test [1] is given as “* (Slightly selective compounds: 1 ≤ SI < 3)”. In the test with Escherichia coli AG100, the “Antibacterial activity Against E. coli AG100” value was “** (Moderate antibacterial compounds: 10 µM < MIC ≤ 50 µM)”.

For the compound `CC(=O)C[Se]C(=O)c1cccc(C(=O)[Se]CC(C)=O)c1` [Compound 23, Se,Se-bis-(2-oxopropyl) benzene-1,3-bis-(carboselenoate)], the IC50 in test [1] is less than 1 µM; in the test on Steinernema feltiae, greater than 100 µM; with Candida albicans it was 10 to 50 µM. Also, the “SI (MRC-5/Colo205)” value in test [1] was “* (Slightly selective compounds: 1 ≤ SI < 3)”. Further, in the test with Escherichia coli AG100, the “Antibacterial activity Against E. coli AG100” value is reported as “** (Moderate antibacterial compounds: 10 µM < MIC ≤ 50 µM)”.

For `CC(=O)C[Se]C(=O)c1cc(C(=O)[Se]CC(C)=O)cc(C(=O)[Se]CC(C)=O)c1` [Compound 24, Se,Se,Se-tris-(2-oxopropyl) benzene-1,3,5-tris-(carboxyselenoate)], the figures for the IC50 (in test [1]; with Steinernema feltiae; with Candida albicans) were less than 1 µM, greater than 100 µM and greater than 100 µM, respectively. Also, the “SI (MRC-5/Colo205)” value in test [1] is recorded as “* (Slightly selective compounds: 1 ≤ SI < 3)”. For the same compound, the “Antibacterial activity Against E. coli AG100” value in the test on Escherichia coli AG100 is listed as “** (Moderate antibacterial compounds: 10 µM < MIC ≤ 50 µM)”.
